{
  "source": "paper PMC7029851",
  "about": "“Antibacterial activity of novel dual bacterial DNA type II topoisomerase inhibitors” (PLoS ONE, 2020)",
  "key": {"[1]": {"system": "E. coli 4SI", "assay": "MIC, broth microdilution", "assay_type": "cell-based", "conditions": "Escherichia coli, ciprofloxacin-resistant", "description": "(§1) MICs were determined by the broth microdilution method (the agar dilution method was used only for N. gonorrhoeae) according to CLSI guidelines."}, "[2]": {"system": "S. pyogenes APV00074", "assay": "MIC, broth microdilution", "assay_type": "cell-based", "conditions": "Streptococcus pyogenes; S. pyogenes APV00074, ciprofloxacin-susceptible", "description": "as §1"}, "[3]": {"system": "A. baumannii ATCC 19606", "assay": "MIC, broth microdilution", "assay_type": "cell-based", "conditions": "Acinetobacter baumannii, ATCC19606; A. baumannii ATCC 19606, ciprofloxacin-susceptible", "description": "as §1"}, "[4]": {"system": "A. baumannii APV00473", "assay": "MIC, broth microdilution", "assay_type": "cell-based", "conditions": "Acinetobacter baumannii; A. baumannii APV00473, ciprofloxacin-resistant", "description": "as §1"}, "[5]": {"biological_target": "T1, hERG channel (Homo sapiens, UniProt Q12809)", "T1 construct": "expressed in transfected cells; host or cells: CHO-K1", "T1 sequence (Q12809 whole entry)": "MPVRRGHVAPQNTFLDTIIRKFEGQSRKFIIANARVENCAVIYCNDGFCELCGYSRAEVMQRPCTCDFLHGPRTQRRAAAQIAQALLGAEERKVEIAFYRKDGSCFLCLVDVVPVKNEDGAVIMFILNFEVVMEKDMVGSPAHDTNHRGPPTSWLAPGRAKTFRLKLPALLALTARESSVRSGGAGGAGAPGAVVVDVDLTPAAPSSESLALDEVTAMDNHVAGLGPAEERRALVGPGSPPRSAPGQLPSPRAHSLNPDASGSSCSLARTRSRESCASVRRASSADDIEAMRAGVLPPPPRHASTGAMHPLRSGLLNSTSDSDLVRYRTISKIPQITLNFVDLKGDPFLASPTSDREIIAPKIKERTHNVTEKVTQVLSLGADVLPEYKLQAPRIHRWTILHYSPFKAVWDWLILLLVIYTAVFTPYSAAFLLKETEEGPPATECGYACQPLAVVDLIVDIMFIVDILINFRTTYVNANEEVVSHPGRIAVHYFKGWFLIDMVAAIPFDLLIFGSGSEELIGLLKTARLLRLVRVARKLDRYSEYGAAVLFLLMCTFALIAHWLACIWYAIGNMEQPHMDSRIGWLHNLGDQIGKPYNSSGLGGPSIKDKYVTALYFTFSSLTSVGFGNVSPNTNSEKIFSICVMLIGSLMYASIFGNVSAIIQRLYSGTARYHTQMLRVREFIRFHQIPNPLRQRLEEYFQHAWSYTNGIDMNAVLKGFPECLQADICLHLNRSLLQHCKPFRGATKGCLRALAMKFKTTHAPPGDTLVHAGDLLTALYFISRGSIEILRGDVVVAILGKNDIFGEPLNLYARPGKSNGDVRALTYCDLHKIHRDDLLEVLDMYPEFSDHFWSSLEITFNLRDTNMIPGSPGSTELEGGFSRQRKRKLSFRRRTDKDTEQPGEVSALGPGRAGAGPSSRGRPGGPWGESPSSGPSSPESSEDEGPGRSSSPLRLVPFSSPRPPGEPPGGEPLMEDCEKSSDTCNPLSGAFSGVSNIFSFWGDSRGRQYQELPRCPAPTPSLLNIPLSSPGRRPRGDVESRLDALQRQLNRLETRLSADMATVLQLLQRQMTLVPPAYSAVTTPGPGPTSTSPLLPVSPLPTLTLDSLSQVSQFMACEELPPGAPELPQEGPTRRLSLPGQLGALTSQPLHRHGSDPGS", "assay": "hERG automated patch clamp assay", "assay_type": "cell-based", "conditions": "CHO-K1, read-out: IC50 against hERG channels", "excerpt": "hERG automated patch clamp assay. The human recombinant ERG CHO-K1 cell line was used in an automated patch clamp assay (qPatch system) to evaluate the hERG channel blockade potential of compounds 1 and 2 [36]. Concentration (log) response curves were fitted to a logistic equation to generate estimates of the 50% inhibitory value."}, "[6]": {"system": "C. difficile ATCC 700057", "assay": "MIC, broth microdilution", "assay_type": "cell-based, Clostridium difficile", "conditions": "Clostridioides difficile, ATCC700057", "description": "MICs were determined by the broth microdilution method (the agar dilution method was used only for N. gonorrhoeae) according to CLSI guidelines. […] The MIC values of antibiotics used in clinical practice were interpreted according to the susceptibility interpretive criteria reported in the appropriate CLSI Tables (M100-S25, CLSI, 2015)."}, "[7]": {"system": "S. aureus BAA-1720", "assay": "Minimal bactericidal concentration", "assay_type": "cell-based, Staphylococcus aureus", "description": "(§2) Minimal bactericidal concentrations (MBCs) were determined according to the procedure described by Knapp. Viable counts were performed after plates were incubated at 37°C for 24 hours. The MBC was defined as the lowest concentration that reduced the viability of the initial bacterial inoculum by ≥99.9%."}, "[8]": {"system": "S. aureus ATCC 29213", "assay": "Minimal bactericidal concentration", "assay_type": "cell-based, Staphylococcus aureus", "description": "as §2"}, "[9]": {"system": "A. baumannii clinical isolates (n = 10)", "assay": "microbe, parasite or virus in culture", "assay_type": "cell-based, Acinetobacter baumannii", "description": "(§3) The bacterial reference strains used in this study were purchased from ATCC (American Type Culture Collection) via LGC Standards (Middlesex, UK). […] Clinical MDR isolates were provided by Aptuit, the IHMA Europa Sàrl repository (Epalinges, Switzerland) and the Statens Serum Institute (Copenhagen, Denmark).\nas §1\n(§4) The results obtained using clinical isolates are reported as MIC50 and MIC90 values."}, "[10]": {"system": "C. difficile clinical isolates (n = 21)", "assay": "MIC, multidrug-resistant clinical isolates", "assay_type": "cell-based, Clostridium difficile", "conditions": "Clostridioides difficile, C. difficile clinical isolates (n = 21)", "description": "as §3, §1, §4"}, "[11]": {"system": "K. pneumoniae AcrAB- mutant", "assay": "microbe, parasite or virus in culture", "assay_type": "cell-based", "conditions": "Klebsiella pneumoniae", "summary_of_the_method": "(§5)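 MICs against efflux-deficient mutant strains were determined by broth microdilution following CLSI guidelines.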"}, "[12]": {"system": "H. influenzae AcrA- mutant", "assay": "microbe, parasite or virus in culture", "assay_type": "cell-based", "conditions": "Haemophilus influenzae", "summary_of_the_method": "as §5"}, "[13]": {"system": "S. aureus ATCC BAA-1720", "assay": "Time-kill assay", "assay_type": "cell-based, Staphylococcus aureus", "description": "(§6) Time-kill experiments were performed according to the procedure reported by Knapp. […] A drug-free control was included in each experiment. The bacterial cultures were standardized to obtain an initial inoculum that ranged from 5×10^5 to 5×10^6 CFU/ml. The cultures were incubated at 37°C in a shaking bath. At 0, 2, 4, 8 and 24-hour intervals, viable counts were performed by spotting (in triplicate) 10 μl aliquots of suitable dilutions of the cultures onto Mueller-Hinton agar (MHA, Oxoid, Basingstoke, UK) plates. After incubation at 37°C for 24 hours, the bactericidal activity, namely, the ability to reduce the initial inoculum by 3 log10 CFU/ml, was assessed for each tested concentration over time."}, "[14]": {"system": "S. aureus ATCC 29213", "assay": "Time-kill assay", "assay_type": "cell-based, Staphylococcus aureus", "description": "as §6"}, "[15]": {"system": "E. coli ATCC 25922", "assay": "Time-kill assay", "assay_type": "cell-based, Escherichia coli", "conditions": "1× to 4× MIC, over 24 hours", "description": "as §6"}, "[16]": {"system": "S. aureus ATCC 29213", "assay": "Post-antibiotic effect (PAE)", "assay_type": "cell-based, Staphylococcus aureus", "conditions": "1-hour exposure, range over 1×, 4× and 16× MIC", "description": "(§7) A drug-free control was included in each experiment. After being exposed to the drug for 1 hour, viable counts were conducted in triplicate by spotting aliquots (10 μl) of suitable dilutions onto MHA plates. The drugs were removed by diluting the bacterial cultures (1:1000) in Cation-Adjusted Mueller-Hinton Broth (CAMHB; Sigma-Aldrich). The diluted cultures were incubated in a shaking bath at 37°C. To monitor the ongoing suppression of bacterial growth over time (5 hours), aliquots from each broth culture were periodically collected, diluted and plated to perform subsequent viable counts (in triplicate)."}, "[17]": {"system": "S. aureus clinical isolates (n = 10)", "assay": "microbe, parasite or virus in culture", "assay_type": "cell-based, Staphylococcus aureus", "description": "as §3, §1, §4"}, "[18]": {"system": "S. aureus ATCC 29213 and S. aureus BAA-1720", "assay": "MIC in the presence of 20% human serum"}, "[19]": {"system": "E. coli ATCC 25922", "assay": "Post-antibiotic effect (PAE)", "assay_type": "cell-based, Escherichia coli", "conditions": "1× and 4× MIC", "description": "as §7"}, "[20]": {"system": "E. coli clinical isolates (n = 36)", "assay": "MIC, multidrug-resistant clinical isolates", "assay_type": "cell-based, Escherichia coli", "conditions": "Escherichia coli, E. coli MDR clinical isolates (n = 36)", "description": "as §3, §1, §4"}, "[21]": {"system": "S. aureus ATCC 29213", "assay_type": "cell-based, Staphylococcus aureus"}, "[22]": {"conditions": "S. aureus MDR clinical isolates (n = 10)"}},
  "note": "Like-named read-outs stand apart in the source and are kept apart here.",
  "data": [
    {"smiles": "O=C1COc2ncc(F)cc2N1[C@H]1CC[C@H](NCc2cc3c(=O)oc4ccc(F)cc4c3[nH]2)CC1", "note": "[Compound 1, 8-fluoro-2-({[trans-4-(7-fluoro-2-oxo-2,3-dihydro-1H-pyrido[2,3-b][1,4]oxazin-1-yl)cyclohexyl]amino}methyl)[1]benzopyrano[4,3-b]pyrrol-4(1H)-one]", "values": [
      {"measurement": "MIC", "setting": "[1]", "value": 0.25, "unit": "µg/mL"},
      {"measurement": "MIC", "setting": "[2]", "value": 0.5, "unit": "µg/mL"},
      {"measurement": "MIC", "setting": "[3]", "value": "≤ 0.06", "unit": "µg/mL"},
      {"measurement": "MIC", "setting": "[4]", "value": "≤ 0.06", "unit": "µg/mL"},
      {"measurement": "IC50", "setting": "[5]", "value": 8.9, "unit": "µM"},
      {"measurement": "MIC", "setting": "[6]", "value": 1, "unit": "µg/mL"},
      {"measurement": "MBC/MIC", "setting": "[7]", "value": 2},
      {"measurement": "MBC", "setting": "[7]; Staphylococcus aureus, BAA1720, ≥99.9% reduction of inoculum", "value": 1, "unit": "µg/mL"},
      {"measurement": "MBC/MIC", "setting": "[8]", "value": 16},
      {"measurement": "MBC", "setting": "[8]; Staphylococcus aureus, ATCC29213, ≥99.9% reduction of inoculum", "value": 4, "unit": "µg/mL"},
      {"measurement": "MIC range", "setting": "[9]", "value": "≤0.06 to 0.12", "unit": "µg/mL"},
      {"measurement": "MIC50", "setting": "[9]; Acinetobacter baumannii", "value": 0.12, "unit": "µg/mL"},
      {"measurement": "MIC90", "setting": "[9]; Acinetobacter baumannii", "value": 0.12, "unit": "µg/mL"},
      {"measurement": "MIC50", "setting": "[10]; read-out: MIC50", "value": 1, "unit": "µg/mL"},
      {"measurement": "MIC90", "setting": "[10]; read-out: MIC90", "value": 1, "unit": "µg/mL"},
      {"measurement": "MIC", "setting": "[10]; read-out: MIC range", "value": "0.25 to 2", "unit": "µg/mL"},
      {"measurement": "MIC", "setting": "[11]", "value": 0.03, "unit": "µg/mL"},
      {"measurement": "MIC", "setting": "[12]", "value": "≤ 0.016", "unit": "µg/mL"},
      {"measurement": "Bactericidal activity in time-kill (reduction of 3 log10 CFU/ml)", "setting": "[13]; 1× to 4× MIC, over 24 hours", "value": "bactericidal effect"},
      {"measurement": "Concentration with bactericidal activity in time-kill", "setting": "[13]; 4× MIC, after a 24 hour incubation", "value": 2, "unit": "µg/mL"},
      {"measurement": "Bactericidal activity in time-kill (reduction of 3 log10 CFU/ml)", "setting": "[14]; 1× to 4× MIC (compound 1 also 8× and 16× MIC), over 24 hours", "value": "bactericidal effect"},
      {"measurement": "Bactericidal activity in time-kill", "setting": "[14]; 8× and 16× MIC, after 24 hour incubation", "value": "effective"},
      {"measurement": "Bactericidal activity in time-kill", "setting": "[14]; concentrations up to 4× MIC", "value": "no bactericidal activity"},
      {"measurement": "Bactericidal activity in time-kill (reduction of 3 log10 CFU/ml)", "setting": "[15]", "value": "bactericidal effect"},
      {"measurement": "PAE", "setting": "[16]", "value": "54 to 58", "unit": "min"},
      {"measurement": "MIC50", "setting": "[17]; [22]", "value": 0.125, "unit": "µg/mL"},
      {"measurement": "MIC90", "setting": "[17]; [22]", "value": 0.5, "unit": "µg/mL"},
      {"measurement": "MIC range", "setting": "[17]; [22]", "value": "0.12 to 0.5", "unit": "µg/mL"},
      {"measurement": "MIC", "setting": "[17]; Staphylococcus aureus, MRSA, S. aureus APV0063, MRSA", "value": 0.12, "unit": "µg/mL"},
      {"measurement": "MIC", "setting": "[17]; Staphylococcus aureus, MRSA, S. aureus APV0064, MRSA", "value": 0.12, "unit": "µg/mL"},
      {"measurement": "MIC", "setting": "[17]; Staphylococcus aureus, MRSA, S. aureus APV0065, MRSA", "value": 0.12, "unit": "µg/mL"},
      {"measurement": "MIC", "setting": "[17]; Staphylococcus aureus, S. aureus APV00045, M (macrolide resistance)", "value": 0.5, "unit": "µg/mL"},
      {"measurement": "MIC", "setting": "[17]; Staphylococcus aureus, S. aureus APV0048, MLSi", "value": 0.25, "unit": "µg/mL"},
      {"measurement": "MIC", "setting": "[17]; Staphylococcus aureus, S. aureus APV0049, MLSi", "value": 0.5, "unit": "µg/mL"},
      {"measurement": "MIC", "setting": "[17]; Staphylococcus aureus, S. aureus APV0052, MLSc", "value": 0.5, "unit": "µg/mL"},
      {"measurement": "MIC", "setting": "[17]; Staphylococcus aureus, S. aureus APV0053, MLSc", "value": 0.25, "unit": "µg/mL"},
      {"measurement": "MIC", "setting": "[17]; Staphylococcus aureus, S. aureus APV00280, M (macrolide resistance)", "value": 0.12, "unit": "µg/mL"},
      {"measurement": "MIC", "setting": "[17]; Staphylococcus aureus, S. aureus APV00281, M (macrolide resistance)", "value": 0.12, "unit": "µg/mL"},
      {"measurement": "MIC50", "setting": "[17]; Staphylococcus aureus, S. aureus MDR clinical isolates (n = 10), read-out: MIC50", "value": 0.12, "unit": "µg/mL"},
      {"measurement": "MIC90", "setting": "[17]; Staphylococcus aureus, S. aureus MDR clinical isolates (n = 10), read-out: MIC90", "value": 0.5, "unit": "µg/mL"},
      {"measurement": "Change of MIC in the presence of 20% human serum", "setting": "[18]", "value": "two-fold increase"},
      {"measurement": "PAE compared with ciprofloxacin", "setting": "[19]", "value": "consistently higher"},
      {"measurement": "MIC", "setting": "[20]", "value": "0.25 to 16", "unit": "µg/mL"},
      {"measurement": "MIC50", "setting": "[20]; read-out: MIC50", "value": 1, "unit": "µg/mL"},
      {"measurement": "MIC90", "setting": "[20]; read-out: MIC90", "value": 1, "unit": "µg/mL"},
      {"measurement": "In vitro frequency of resistant mutants", "setting": "[21]; S. aureus ATCC 29213, 2×MIC", "value": "TNTC"},
      {"measurement": "In vitro frequency of resistant mutants", "setting": "[21]; S. aureus ATCC 29213, 4×MIC", "value": "1.4×10^−7"}
    ]}
  ]
}
